Reference: patent US6395719B1, “Methods for increasing levels of acetylcholine” (Eli Lilly and Company, priority 1998, dated 2002)

Tests used:
[1] = system: Alzheimer's disease; assay: Amelioration of Alzheimer's disease in post-menopausal women on chronic administration; type: in vivo, human; conditions: post-menopausal women with Alzheimer's disease; 60 mg per day oral; after 2-12 months
Description: Thus, the current invention provides methods for the treatment and prophylaxis of syndromes related to the loss of memory, learning, and cognitive function, often seen in women who are estrogen deprived, especially post-menopausal women. An example of such a syndrome is senile dementia of the Alzheimer's type. Beneficial effects, such as a decrease in memory loss, associated with administration of a compound of this invention become apparent after chronic administration.

[2] = system: cognitive and memory functions; assay: Prophylactic use: cognitive and memory function by standard tests in peri- or post-menopausal women; type: in vivo, human; conditions: 60 mg/day oral for 1-5 years
Protocol: The methods of the present invention may also be employed in a prophylactic modality. For example, a group of peri- or post-menopausal women may have their cognitive and memory function evaluated by standard tests. Following the establishment of this baseline, the women are administered raloxifene hydrochloride at 60 mg/day, via the oral route, for a period 1-5 years.

[3] = system: choline acetyltransferase (ChAT); assay: ChAT activity in hippocampus and frontal cortex homogenates of ovariectomized rats, radio-labelled assay of acetylcholine bio-synthesis; type: in vivo, female Sprague-Dawley rats; conditions: daily s.c. or oral gavage for 3 or 10 days, raloxifene HCl 3 mg/kg/day, estradiol benzoate 0.03 or 0.3 mg/kg/day; for levels of ChAT, difference from the sham controls: OVX rats
Protocol: Forty female Sprague-Dawley rats (weight range of 300 to 325 g, six months old) are obtained from Harlan. The animals are either bilaterally ovariectomized (OVX) or exposed to a Sham surgical procedure, and then shipped after two weeks. Upon arrival, they are housed in metal hanging cages in groups of 3 or 4 per cage and have ad libitum access to food and water for one week. Room temperature is maintained at 22.2°±1.70° C. with a minimum relative humidity of 40%. The photoperiod in the room is 12 hours light and 12 hours dark.
The animals are dosed daily by subcutaneous injection or oral gavage with either raloxifene hydrochloride, at 3 mg/kg/day in a vehicle containing 10% cyclodextrin, estradiol benzoate at 0.03 or 0.3 mg/kg/day, or vehicle control. Animals were treated for 3 or 10 days. There are twenty animals per each dosing regimen. At the appropriate time intervals, the animals are sacrificed and their brains dissected. The particular portions of the brains are homogenized and assayed. Homogenates from the hippocampus and frontal cortex were processed and determination of ChAT activity was made by a radio-labelled assay of the bio-synthesis of acetylcholine. This procedure may be found in Schoepp et al., J. Neural Transmiss., 78:183-193, 1989, the teachings of which are incorporated by reference.

SMILES | effect on Alzheimer's disease [1] | loss of cognitive and memory functions relative to placebo [2] | levels of ChAT, difference from the sham controls [3] | levels of ChAT versus the OVX controls [3]
Cl.O=C(c1ccc(OCCN2CCCCC2)cc1)c1c(-c2ccc(O)cc2)sc2cc(O)ccc12 [raloxifene hydrochloride, [2-(4-hydroxyphenyl)-6-hydroxybenzo[b]thien-3-yl][4-[2-(1-piperidinyl)ethoxy]phenyl]methanone hydrochloride] | amelioration of their disease | decrease in loss of these functions | insignificant difference | significantly (p<0.05) increased
C[C@]12CC[C@@H]3c4ccc(OC(=O)c5ccccc5)cc4CC[C@H]3[C@@H]1CC[C@@H]2O [estradiol benzoate, reference compound] |  |  | insignificant difference | significantly (p<0.05) increased
